{
  "source": "patent US20050143343A1",
  "about": "“Nutritional supplement for enhancing the production and effect of natural human growth hormone” (priority 2003, published 2005)",
  "origin": "cited, not measured here",
  "system": "human growth hormone secretion",
  "conditions": "oral administration, 15 male volunteers; 1200 mg of each constituent, in combination or alone at the same doses",
  "data": [
    {"compound": "Cl.NCCCC[C@H](N)C(=O)O", "note": "[L-lysine hydrochloride]", "values": [
      {"measurement": "secretion (release) of human growth hormone", "value": "Neither of the two constituents resulted a significant release of human growth hormone"}
    ]},
    {"compound": "L-arginine-2-pyrrolidone-5-carboxylate", "values": [
      {"measurement": "secretion (release) of human growth hormone", "value": "Neither of the two constituents resulted a significant release of human growth hormone"}
    ]}
  ]
}
